Test results reported in patent publication US20250223297A1, “NOVEL RAPAMYCIN DERIVATIVES” (Novartis AG, priority 2017, published 2025).

Key:
FKBP52 = FKBP52 (Homo sapiens (Human), UniProt Q02790); test: SPR assay, binding affinity to FKBP52; conditions: single-cycle kinetics
Description: (§1) SPR Assay to Determine Binding Affinity to FK506-Binding Proteins (FKBP). N-terminal avi-his6 tagged FKBP fusions to FKBP12, FKBP51 and FKBP52 were expressed in E. coli and purified using standard chromatography. Each protein was subsequently immobilized on a streptavidin chip in a Biacore 8K SPR instrument (GE Healthcare). Using single-cycle kinetics, compound titrations were flowed at 45 uL/min over each surface using 2-minute association and 30-minute dissociation phases in a buffer containing 50 mM Tris pH 7.5/150 mM NaCl/0.01% Tween 20/1 mM DTT/2% DMSO. The data was fit using low molecular weight (LMW) single-cycle kinetics. The equilibrium dissociation constants (KD) are reported. […]

[1] = Comparative blood and brain concentrations in rats after single p.o. dose; assay type: in vivo; conditions: rat, single p.o. dose 3, 10, 30 mg/kg; 3 h and 24 h
Description: Concentrations were determined using HPLC/Mass spectrometry. […] Blood and brain tissues were collected at 3 hours (h) and 24 h following treatment to determine concentrations of the compounds.

[2] = system: mTORC1 pathway (S6 phosphorylation) in rat liver; test: Inhibition of mTORC1 pathway in rat liver (p-S6/t-S6 immunoblot); assay type: in vivo
Description: Protein extraction and immunoblotting. For protein extraction, snap frozen tissues were lysed in MSD Lysis Buffer (MSD, Rockville, Maryland), supplemented with complete EDTA free protease inhibitor and PhosSTOP phosphatase inhibitor tablets (Roche, Manheim, Germany), and centrifuged at 13,000g for 20 min at 4° C. The resultant supernatant was used for immunoblotting. Protein was quantified with BCA protein assay (Thermo Scientific, MA). Samples were resolved on 4-20% Criterion™ TGX™ Precast Midi Protein gels (Bio-Rad, CA) and transferred onto nitrocellulose membranes (Bio-Rad, CA) using a Trans Turbo Blot system (Bio-Rad, CA). Immunoblotting was performed with antibodies to p-S6 and t-S6 from Cell Signaling Technologies (all 1:1000 in TBS-T with 5% BSA). The ‘p’ and ‘t’ prefixes signify ‘phosphorylated’ and ‘total’ forms respectively. HRP-conjugated secondary antibodies against rabbit (#7074) were from Cell Signaling Technologies, MA. […] Resultant digital images were converted into a TIFF format and quantified using ImageJ software.
The ability of Example 2 to inhibit mTORC1 pathway in vivo was determined in rats aged 4 months (FIG. 5A-5D).

[3] = system: S6K1 (Thr389) phosphorylation (mTORC1 activity) in WT 293T cells; test: S6K1 (Thr389) phosphorylation ELISA in wild-type 293T cells; assay type: cell-based; conditions: 2 h, relative to DMSO
Description: WT, FKBP12 knock-down and FKBP12 knock-out 293T cells were plated at a density of 30,000 cells per well in poly-D-Lysine coated 96-well plates (Corning, #354461) in Dulbecco's modified Eagle's medium (ThermoFisher, #11995-065) supplemented with 10% fetal bovine serum (ThermoFisher, #16140-071). Cells were incubated at 37° C., 5% CO2 for 48 hours until they reached ˜80% confluence. […] Media supplemented with blank Dimethyl sulfoxide (DMSO) was used as a control for both compounds. Phosphorylated amounts of S6K1 (Thr389) were detected by a sandwich ELISA kit (Cell signaling, #7063C) following the manufacture's protocol.
S6K1 is a downstream target of mTORC1 and phosphorylation of its rapalog-sensitive Thr389 site is used as a functional readout of mTORC1 activity. Lee, C. H., Inoki, K. and Guan, K. L. (2007). mTOR pathway as a target in […]. Annu. Rev. Pharmacol. Toxicol. 47. 443-467. […] In FKBP12 knock-out cells. […] Such specificity of Example 2 to FKBP12 may facilitate targeting cells and tissues with relatively high levels of FKBP12 expression, while avoiding (or minimizing) side effects in the tissues where FKBP12 is weakly expressed.

[4] = system: S6K1 (Thr389) phosphorylation (mTORC1 activity) in FKBP12 knock-down 293T cells; test: S6K1 (Thr389) phosphorylation ELISA in FKBP12 knock-down 293T cells; assay type: cell-based; conditions: 2 h, relative to DMSO
[5] = system: S6K1 (Thr389) phosphorylation (mTORC1 activity) in FKBP12 knock-out 293T cells; test: S6K1 (Thr389) phosphorylation ELISA in FKBP12 knock-out 293T cells; assay type: cell-based; conditions: 2 h, relative to DMSO
[6] = system: mTORC1 signaling (pS6 Ser240/244) in MEF TSC1−/− cells; test: MEF TSC1-/- cell based assay for rapalog potency (pS6); set-up: species or system mouse; conditions: Mus musculus, 2 h, 2 h treatment, average from multiple assays
Text: Potency of mTOR inhibitors may also be determined using a MEF TSC1−/− cell-based assay. MEF TSC1−/− cells are Mouse Embryonic Fibroblasts deficient in the Tuberous sclerosis protein, TSC1, which negatively regulates mTORC1 signaling. Thus, the deficiency of TSC1 induces constitutive mTORC1 activation, resulting in phosphorylation (activation) of the downstream proteins in the mTORC1 signaling pathways. This cell-based assay is used to measure inhibition (de-phosphorylation) of the mTORC1 signaling components S6 and 4EBP1, by rapalogs or other mTOR inhibitors.
The assay is typically carried out as follows: MEF TSC1−/− cells are plated on Poly-D-lysine coated 384 well Griener clear bottom plates and incubated overnight at 37° C., 5% CO2. […] Cells are fixed with 4% paraformaldehyde for 30 min and washed 5 times with TBS-EDTA followed by immuno-staining with florescent tag labeled antibodies for pS6 and p4EBP1. Nuclei are visualized with Hoechst staining. Cells are imaged using respective florescence channels and the potency of mTOR inhibitors is defined by pS6 IC50 (nM).
Cell-based assay for rapalog potency determination. Rapalog potency was determined using MEF TSC1−/− cell based assay. MEF TSC1−/− cells are Mouse Embryonic Fibroblasts deficient in Tuberous sclerosis protein-TSC1, which negatively regulates mTORC1 signaling and thus display constitutive mTORC1 activation, resulting in phosphorylation (activation) of downstream molecules. This cell-based assay is used to measure inhibition (de-phosphorylation) of S6 and 4EBP1 by rapalogs or other mTOR inhibitors.
MEF TSC1−/− cells were plated on Poly-D-lysine coated 384 well Griener clear bottom plates and incubated overnight at 37° C., 5% CO2. […] Nuclei were visualized with Hoechst (ThermoFisher Scientific #H3570) staining. Cells were imaged (InCell 600) using respective fluorescence channels and the potency of mTOR inhibitors was defined by pS6 IC50 (nM).
In vitro potency of mTOR inhibitors was defined by pS6 IC50 (nM) in MEF TSC1−/− cells.
IC50 values are calculated as the average from multiple assays.

FKBP12 = FKBP12 (Homo sapiens (Human), UniProt P62942); test: SPR assay, binding affinity to FKBP12; conditions: single-cycle kinetics
Chain of FKBP12 (P62942 whole entry): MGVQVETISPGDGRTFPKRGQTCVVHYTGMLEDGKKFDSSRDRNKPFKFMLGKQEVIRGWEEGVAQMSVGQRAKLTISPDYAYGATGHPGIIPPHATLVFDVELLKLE
Description: as §1

Chain of FKBP52 (Q02790 whole entry, the tested form may be a part): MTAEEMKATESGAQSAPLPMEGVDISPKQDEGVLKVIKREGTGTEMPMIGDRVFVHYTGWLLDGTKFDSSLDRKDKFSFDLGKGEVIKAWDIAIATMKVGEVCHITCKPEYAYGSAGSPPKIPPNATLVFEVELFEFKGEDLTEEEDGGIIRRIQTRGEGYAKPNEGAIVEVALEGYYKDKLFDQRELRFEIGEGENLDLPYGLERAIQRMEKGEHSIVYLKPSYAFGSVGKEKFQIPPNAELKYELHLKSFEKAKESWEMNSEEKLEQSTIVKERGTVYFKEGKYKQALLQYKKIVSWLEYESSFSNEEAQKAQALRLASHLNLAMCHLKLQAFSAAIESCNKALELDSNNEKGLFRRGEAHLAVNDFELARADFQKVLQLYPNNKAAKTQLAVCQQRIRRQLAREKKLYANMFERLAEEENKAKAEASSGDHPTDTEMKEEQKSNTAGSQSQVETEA

## CO[C@@H]1C[C@H](C[C@@H](C)[C@@H]2CC[C@H](C)/C=C(\C)[C@@H](O)[C@@H](OC)C(=O)[C@H](C)C[C@H](C)/C=C/C=C/C=C(\C)[C@H](N3CCCS3(=O)=O)C[C@@H]3CC[C@@H](C)[C@@](O)(O3)C(=O)C(=O)N3CCCC[C@H]3C(=O)O2)CC[C@H]1O [Example 2, (R)-C16-(1,1-dioxidoisothiazolidin-2-yl)-C32-deoxo-rapamycin]
FKBP52
  Kd: > 10000 nM
[1]
  blood concentrations compared with RAD001: higher
  brain concentrations compared with RAD001: higher
[2]; 24 h following dosing with 10 (trend p=0.06) and 30 mg/kg
  S6 inactivation in rat liver, 24 h: remained inactivated
[2]; single p.o. dose 3, 10 and 30 mg/kg, three hours following dosing, vs vehicle
  de-phosphorylation (inactivation) of S6 in rat liver, 3 h: significant de-phosphorylation
[3]
  inhibition of S6K1 (Thr389): ~80%
[4]
  maximum inhibition of S6K1 (Thr389): ~40%
[5]
  inhibition of S6K1 (Thr389) phosphorylation: failed to inhibit
[6]
  IC50: 0.274 nM
FKBP12
  Kd: 16 nM
